The record followed here is patent US20060134197A1, “Method of reducing unpleasant taste and/or unpleasant odor” (priority 2002, published 2006).

Data set [1] is described as follows: Panel test of lowering iron taste and/or smell of aqueous bivalent iron ion solution. Also noted: key to Effect on lowering iron taste and/or smell: “Not effective (symbol “−”)” meaning of that the test aqueous solution showed no difference in iron taste and/or smell from that the control aqueous solution; “Slightly effective (symbol “+”)”, the test aqueous solution showes weaker iron taste and/or smell than the control aqueous solution but the deference was not significant; “Effective (symbol “++”)”, the test aqueous solution showed a slight iron taste and/or smell but it was significantly weaker than that of the control aqueous solution; “Strongly effective (symbol “+++”)”, the test aqueous solution showed almost no iron taste and/or smell. The settings on record: for Effect on lowering iron taste and/or smell: 5 mg bivalent iron per 100 ml, 12 panels. As for the experimental part: To confirm the effect of various saccharides on inhibiting taste and/or smell of bivalent iron ion, the following experiment was carried out. An aqueous solution containing bivalent iron ion was prepared by dissolving 0.05556 part by weight of ammonium ferric citrate (iron content of about 18%), and 0.1 part by weight of ascorbic acid in 100 parts by weight of deionized water. Test aqueous solutions containing 5 mg of bivalent iron per 100 ml of water and 0.5, 1.0, 1.5, 2.0 or 5.0% of saccharide selected from sucrose, maltose (hydrous crystalline maltose commercialized by Hayashibara Biochemical Laboratories, Inc., Okayama, Japan, purify 99.0% or more), α,α-trehalose (hydrous crystalline α,α-trehalose commercialized by Hayashibara Biochemical Laboratories, Inc., Okayama, Japan, purity 99.0% or more), α-glucosyl α,α-trehalose (hydrous crystalline α-glucosyl α,α-trehalose prepared in Experiment B-1 of Japanese Patent Publication (Kokai) No. 291,986/1995, purity 99.0% or more), and […] (powdery α-maltosyl α,α-trehalose prepared in Example 5 described following, purity 98.1%) were prepared by admixing the above aqueous solution containing bivalent iron with an equal volume of a pre-prepared aqueous solution containing any one of the above saccharides at a concentration of 1.0, 2.0, 3.0, 4.0 or 10.0%, on a dry solid basis. As a control, an aqueous solution was prepared by admixing the aqueous solution containing bivalent iron ion with an equal volume of warter instead of the aqueous saccharide solution.
The effect on lowering iron taste and/or smell, namely unpleasant taste and/or smell of iron ion existing in a test aqueous solution at a concentration of 5 mg per 100 ml was judged by a panel test using 12 panels. […] In the judgement for each test aqueous solution, ten or more of 12 panels answered the same judgement.

Data set [2] in a line: Inhibiting the production of hydrogen sulfide from L-cysteine due to heat-decomposition. The settings on record: 2.5 g L-cysteine hydrochloride and 5 g saccharide in 50 ml; 80° C. for 15 minutes; 100 minus relative value, control defined as 100. The text has this: Two and half grams of precisely weighted L-cysteine hydrochloride (special reagent grade) and on a dry solid basis 5 g of a precisely measured saccharide sample; i.e. hydrous crystalline α,α-trehalose (reagent grade, purity 99.0% or more, commercialized by Hayashibara Biochemical Laboratories, Inc., Okayama, Japan), α-maltosyl α,α-trehalose prepared in the following Example 5 (purity 98.1%), or a reagent grade maltotetraose (purity 97.0% or more, commercialized by Hayashibara Biochemical Laboratories, Inc., Okayama, Japan); were placed in a 50-ml volume measuring flask and dissolved in deionized water to give a final volume of 50 ml. As a control, 2.5 g of precisely measured L-cysteine hydrochloride (special reagent grade) was dissolved in deionized water to give a final volume of 50 ml. Five ml of each sample was place into a 20-ml volume vial, sealed with a butyl gum cap, and kept at 80° C. for 15 minutes in an incubator. Hydrogen sulfide contained in 10 ml of the resulting headspace gas was measured by “GASTECH No. 4 LT”, a hydrogen sulfide detector commercialized by GL Science Corporation, under an aspiration time of one minute. The resulting value of the production of hydrogen sulfide of each test sample was compared with the value of control defined as 100 to calculate the relative value of the production of hydrogen sulfide. And then, the relative rate of inhibiting the production of hydrogen sulfide was calculated by 100 minus the relative value.

Data set [3] in a line: Water solubility and hygroscopicity of the agents. The format is physicochemical.

As for `OC[C@H]1O[C@H](O[C@H]2[C@H](O)[C@@H](O)C(O)O[C@@H]2CO)[C@H](O)[C@@H](O)[C@@H]1O` (mixture of isomers) [Maltose, maltose], the “Effect on lowering iron taste and/or smell” value is reported as “−” in data set [1] (saccharide 0.5%); “−” in data set [1] (saccharide 1.0%); “−” in data set [1] (saccharide 1.5%); “+” in data set [1] (saccharide 2.0%); “+” in data set [1] (saccharide 5.0%). Besides, in data set [1] (to the total weight of the aqueous solution, dry solid basis), the “Concentration effective on lowering unpleasant taste and/or smell of aqueous iron ion solution” value is no less than 2%.

As to `OC[C@H]1O[C@H](O[C@H]2[C@H](O)[C@@H](O)[C@@H](O[C@H]3[C@H](O)[C@@H](O)[C@@H](O[C@H]4[C@H](O)[C@@H](O)C(O)O[C@@H]4CO)O[C@@H]3CO)O[C@@H]2CO)[C@H](O)[C@@H](O)[C@@H]1O` (some centres unmarked) [Maltotetraose, maltotetraose], in data set [2], the “Relative rate of inhibiting the production of hydrogen sulfide” value is on record as 12.

Regarding `OC[C@H]1O[C@H](O[C@H]2O[C@H](CO)[C@@H](O[C@H]3O[C@H](CO)[C@@H](O)[C@H](O)[C@H]3O)[C@H](O)[C@H]2O)[C@H](O)[C@@H](O)[C@@H]1O` [α-Glucosyl α,α-trehalose, α-glucosyl α,α-trehalose], the “Effect on lowering iron taste and/or smell” value in data set [1] (saccharide 0.5%) is on record as “−”; in data set [1] (saccharide 1.0%), “+”; in data set [1] (saccharide 1.5%), “++”; in data set [1] (saccharide 2.0%), “++”; in data set [1] (saccharide 5.0%), “+++”.

Take `OC[C@H]1O[C@H](O[C@H]2O[C@H](CO)[C@@H](O[C@H]3O[C@H](CO)[C@@H](O[C@H]4O[C@H](CO)[C@@H](O)[C@H](O)[C@H]4O)[C@H](O)[C@H]3O)[C@H](O)[C@H]2O)[C@H](O)[C@@H](O)[C@@H]1O` [α-Maltosyl α,α-trehalose, α-maltosyl α,α-trehalose]: the “Effect on lowering iron taste and/or smell” value in data set [1] (saccharide 0.5%) is “−”; in data set [1] (saccharide 1.0%), “+”; in data set [1] (saccharide 1.5%), “++”; in data set [1] (saccharide 2.0%) it was “++”; in data set [1] (saccharide 5.0%), “+++”. Also, the Hygroscopicity result in data set [3] was “low hygroscopicity”. For the same compound, in data set [3], the Solubility in water entry was “satisfactory solubility in water”. The “Relative rate of inhibiting the production of hydrogen sulfide” value in data set [2] is recorded as 36.
